Reference: paper PMC6225474, “Polypyridyl Zinc(II)-Indomethacin Complexes with Potent Anti-Breast Cancer Stem Cell Activity” (Molecules : A Journal of Synthetic Chemistry and Natural …, 2018)
Like-named read-outs stand apart in the source and are kept apart here.

Assays:
[1] = system: HMLER cells; conditions: MTT, 72 h incubation; cited from earlier work
[2] = system: HMLER-shEcad cells; conditions: cited from earlier work; for IC50: MTT, 72 h incubation
[3] = system: HMLER-shEcad mammospheres; assay: Mammosphere formation assay (number and size of mammospheres); type: cell-based, human; conditions: HMLER-shEcad cells in suspension, treated at respective IC20 value for 5 days
Procedure: (§1) On day 1, 5000 HMLER-shEcad cells were seeded into each well of a 96-well ultralow-attachment plate. The culture media used was MEGM with B27 (Invitrogen), 20 ng/mL EGF, and 4 μg/mL heparin (Sigma). Compounds of interest were added to the HMLER-shEcad cells at various concentrations (0–133 μM), and the suspensions were incubated for 5 days. On day 6, the mammospheres were imaged and counted using a standard microscope. Afterwhich, TOX8 (Sigma) (20 µL) was added to each well and incubated for 16 h. On day 7, the solutions in each well were transferred to a black 96-well plate and the fluorescence was measured using a plate reader, 590 nm (λex = 560 nm). The arbitrary fluorescence values were normalised with respect to control wells (containing DMSO), and dose–response curves were plotted to determine the IC50 values. Three independent experiments were carried out, with each concentration having three repeats […].

[4] = system: HMLER-shEcad mammospheres; design: method as in PMID 26806362, PMID 27774561, PMID 28932846; conditions: 120 h incubation, read-out: Mammosphere IC50; cited from earlier work
[5] = system: HMLER cells; assay: MTT assay, bulk breast cancer cells (HMLER); type: cell-based, human; conditions: 72 h incubation
Procedure: (§2) HEK 293T human embryonic kidney cells purchased from American Type Culture Collection (ATCC, Manassas, VA, USA) were grown in DMEM (Dulbecco’s Modified Eagle’s Medium) with FBS (fetal bovine serum, 10%), and penicillin/streptomycin (1%). Human mammary epithelial CSC-depleted HMLER and human mammary epithelial CSC-enriched HMLER-shEcad cells were obtained from Prof. R.A. Weinberg (Whitehead Institute, MIT). These cells were grown in MEGM (Mammary Epithelial Cell Growth Medium) with BPE, hydrocortisone, hEGF, insulin, and gentamicin/amphotericin-B. All of the cells used in this study were cultured at 37 °C within a humidified incubator with a CO2 controller to maintin CO2 levels at 5%.
(§3) On day 1, 5000 cells (of the appropriate cell line) were plated in each well of a 96-well plate. The cells were then left to attach to the bottom of the wells overnight. On day 2, the compounds of interest were added (at different concentrations, 0.2–100 μM). The cells were incubated with the compounds for 72 h. The volume of each well at this stage was 200 μL. If DMSO was used to aid solubilization of the compounds, then the same amount of DMSO was also present in control wells. […] The absorption of each well was measured using a plate reader at 550 nm. […]

[6] = system: HMLER-shEcad cells; assay: MTT assay, breast CSC-like cells (HMLER-shEcad); type: cell-based, human; conditions: 72 h incubation
Procedure: as §2, §3

[7] = system: HEK 293T cells; assay: MTT assay, human embryonic kidney (HEK 293T) cells; type: cell-based; conditions: for IC50: MTT, 72 h incubation
Procedure: as §2
On day 1, 5000 cells (of the appropriate cell line) were plated in each well of a 96-well plate. The cells were then left to attach to the bottom of the wells overnight. On day 2, the compounds of interest were added (at different concentrations, 0.2–100 μM). The cells were incubated with the compounds for 72 h. The volume of each well at this stage was 200 μL. If DMSO was used to aid solubilization of the compounds, then the same amount of DMSO was also present in control wells. On day 5, a solution of 3-(4,5-dimethylthiazol-2-yl)-2,5-diphenyltetrazolium bromide (MTT) (4 mg/mL) predissolved in PBS was added to each well of the 96-well plate (20 μL). After a further 4 h incubation, the media/MTT solution was removed and the resultant purple formazan crystals were dissolved in DMSO (200 μL). The absorption of each well was measured using a plate reader at 550 nm. The absorption values were normalised according to the control wells and dose—response curves were plotted to determine the IC50 values. Three independent experiments were carried out, with each concentration having six repeats (n = 18).

[8] = system: HMLER-shEcad mammospheres; assay: Mammosphere viability assay (TOX8); type: cell-based, human; conditions: TOX8, 5 days (120 h) incubation
Procedure: as §1

[9] = LogP by shake-flask method with UV-Vis spectroscopy; type: physicochemical; conditions: octanol/water, 100 µM, shaken 24 h, room temperature
Procedure: The shake-flask method in combination with UV-Vis spectroscopy was used to determine the LogP values of 2–5. Briefly, to a suspension of water (500 μL) and octanol (500 μL), 2–5 was added, giving a final concentration of 100 µM. The mixture was shaken for 24 h (room temperature). Using centrifugation, the water and octanol layers were separated and the concentration of 2–5 in each layer was determined using UV-Vis spectroscopy.

[10] = UV-Vis stability study in PBS:DMSO; type: physicochemical; conditions: 50 µM in PBS:DMSO (200:1), 24 h at 37 °C
Description: The shake-flask method was used to determine the lipophilicity (LogP) of 2–5. This involves determining the amount of a given compound partitioned between octanol and water using UV-Vis spectroscopy. […] The size of the polypyridyl ligand has a clear effect on lipophilicity, with LogP values increasing according to the following order; 2 < 3 < 4 < 5. The hydrophobicity of 2–5 implies that the zinc(II) complexes are likely to easily enter cells. […] The metal-perturbed π-π* and metal-to-ligand charge-transfer (MLCT) absorption bands of 2 (50 µM) in PBS:DMSO (200:1) were constant for 24 h at 37 °C (Figure S7), indicative of stability.

[11] = UV-Vis stability study in MEGM/DMSO; type: physicochemical; conditions: 50 µM in MEGM/DMSO (200:1), 24 h at 37 °C
[12] = system: HMLER-shEcad mammospheres; design: method as in PMID 26865551; conditions: previous work; cited from earlier work

| Compound | IC50 [1] [µM] | IC50 [2] [µM] | IC50 [5] [µM] | IC50 [6] [µM] | IC50 [7] [µM] | IC50 [8] [µM] | LogP [9] | other results |
| --- | --- | --- | --- | --- | --- | --- | --- | --- |
| N.N.[Cl][Pt][Cl] [cisplatin] | 3.4 ± 0.5 | 4.9 ± 0.4 | – | – | – | – | – | – |
| CC[C@@H](C(=O)[C@@H](C)[C@@H](O)[C@H](C)[C@@H]1O[C@@H]([C@@H](CC)C(=O)O)CC[C@@H]1C)[C@H]1O[C@]2(C=C[C@@H](O)[C@]3(CC[C@@](C)([C@H]4CC[C@](O)(CC)[C@H](C)O4)O3)O2)[C@H](C)C[C@@H]1C [salinomycin] | 11.4 ± 0.4 | 4.2 ± 0.3 | – | – | – | – | – | decrease in mammospheres formed [3]: 37%; IC50 [4]: 18.5 ± 1.5 µM |
| N.N.O=C([O-])C1(C(=O)[O-])CCC1.[Pt+2] [carboplatin] | 67.3 ± 2.8 | 72.3 ± 7.9 | – | – | – | – | – | – |
| Zn(indomethacin)2(2,2′-bipyridine) [Compound 2] | – | – | 1.2 ± 0.02 | 0.7 ± 0.04 | 20 ± 3.9 | > 133 | 0.89 | fold less potent toward HEK 293T cells than HMLER and HMLER-shEcad cells ([7]; ratio of IC50 values, p < 0.05): up to 17 fold; stability: metal-perturbed π-π* and MLCT absorption bands [10]: constant; stability: UV-Vis absorption bands [11]: unaltered |
| Zn(indomethacin)2(1,10-phenanthroline) [Compound 3] | – | – | 1.1 ± 0.05 | 1.1 ± 0.08 | 2.3 ± 0.1 | 44.1 ± 0.6 | 0.97 | – |
| COc1ccc2c(c1)c(CC(=O)O)c(C)n2C(=O)c1ccc(Cl)cc1 [indomethacin] | – | – | – | – | – | – | – | toxicity towards CSC-like cells ([2]; previous work): non-toxic; mammosphere inhibitory effect [12]: poor |
